The results in this text go back to US11091477B2 (Madera Therapeutics, LLC, priority 2016, dated 2021).

Usually EC50 stands for the concentration that produces a half-maximal response.

For one assay, the system named is HCT116 (human colon cancer). Briefly: CCK-8 cell viability assay on HCT116 human colon cancer cells. Conditions: HCT-116, 48 h, HCT116 cells, 48 hours compound incubation, CCK-8, read-out: EC50 (uM, HCT116). The format is cell-based. Here is the method:
The plate is incubated for 48 hours.
Regarding `Cc1cccc(Cn2c(=O)[nH]c3c(c2=O)CN(Cc2ccccc2)CC3)c1` [Example 2, 6-benzyl-3-[(3-methylphenyl)methyl]-1H, 2H, 3H, 4H, 5H, 6H, 7H, 8H-pyrido[4,3-d]pyrimidine-2,4-dione], the EC50 came out at 3 µM.

Regarding `Cc1cccc(Cn2c(=O)c3c(n(C)c2=O)CCN(Cc2ccccc2)C3)c1` [Example 3, 6-benxyl-1-methyl-3-[(3-methylphenyl)methyl]-1H, 2H, 3H, 4H, 5H, 6H, 7H, 8H-pyrido[4,3-d]pyrimidine-2,4-dione], the half-maximal effective concentration (EC50) stood at 0.18 µM.

Take `Cc1cccc(Cn2c(=O)c3c(n(C(C)C)c2=O)CCN(Cc2ccccc2)C3)c1` [Example 4, 6-benzyl-1-isopropyl-3-(3-methylbenzyl)-5,6,7,8-tetrahydropyrido[4,3-d]pyrimidine-2,4(1H,3H)-dione]: the concentration giving a half-maximal response (EC50) is 2 µM.

Turning to `O=c1[nH]c2c(c(=O)n1Cc1ccc(Cl)cc1)CN(Cc1ccccc1)CC2` [Example 5, 6-benzyl-3-(4-chlorobenzyl)-5,6,7,8-tetrahydropyrido[4,3-d]pyrimidine-2,4(1H,3H)-dione], the half-maximal effective concentration (EC50) came out at 2.7 µM.

In the case of `Cn1c2c(c(=O)n(Cc3ccc(Cl)cc3)c1=O)CN(Cc1ccccc1)CC2` [Example 6, 6-benzyl-3-(4-chlorobenzyl)-1-methyl-5,6,7,8-tetrahydropyrido[4,3-d]pyrimidine-2,4(1H,3H)-dione], the EC50 came out at 0.26 µM.

With `CC(C)n1c2c(c(=O)n(Cc3ccc(Cl)cc3)c1=O)CN(Cc1ccccc1)CC2` [Example 7, 6-benzyl-3-(4-chlorobenzyl)-1-isopropyl-5,6,7,8-tetrahydropyrido[4,3-d]pyrimidine-2,4(1H,3H)-dione], the EC50 came out at 6.6 µM.

For `O=c1[nH]c2c(c(=O)n1Cc1ccc(C(F)(F)F)cc1)CN(Cc1ccccc1)CC2` [Example 8, 3-(4-(trifluoromethyl)benzyl)-6-benzyl-5,6,7,8-tetrahydropyrido[4,3-d]pyrimidine-2,4(1H,3H)-dione], the EC50 stood at 2.6 µM.

Take `Cn1c2c(c(=O)n(Cc3ccc(C(F)(F)F)cc3)c1=O)CN(Cc1ccccc1)CC2` [Example 9]: the half-maximal effective concentration (EC50) amounted to 0.31 µM.

For the compound `CC(C)n1c2c(c(=O)n(Cc3ccc(C(F)(F)F)cc3)c1=O)CN(Cc1ccccc1)CC2` [Example 10, 3-(4-(trifluoromethyl)benzyl)-6-benzyl-5,6,7,8-tetrahydro-1-isopropylpyrido[4,3-d]pyrimidine-2,4(1H,3H)-dione], the concentration for a half-maximal effect (EC50) was found to be 7.1 µM.

Take `CCn1c2c(c(=O)n(Cc3cccc(C(F)(F)F)c3)c1=O)CN(Cc1ccccc1)CC2` [Example 14, 3-(3-(trifluoromethyl)benzyl)-6-benzyl-1-ethyl-5,6,7,8-tetrahydropyrido[4,3-d]pyrimidine-2,4(1H,3H)-dione]: the EC50 was determined as 2.5 µM.

As to `Cn1c2c(c(=O)n(Cc3cccc(Cl)c3)c1=O)CN(Cc1ccccc1)CC2` [Example 15, 3-(3-chlorobenzyl)-6-benzyl-5,6,7,8-tetrahydro-1-methylpyrido[4,3-d]pyrimidine-2,4(1H,3H)-dione], the half-maximal effective concentration (EC50) worked out at 3 µM.

As for `Cn1c2c(c(=O)n(Cc3cccc(Br)c3)c1=O)CN(Cc1ccccc1)CC2` [Example 17, 6-benzyl-3-(3-bromobenzyl)-1-methyl-5,6,7,8-tetrahydropyrido[4,3-d]pyrimidine-2,4(1H,3H)-dione], the 50% effective concentration (EC50) was 1.1 µM.

As to `C#Cc1cccc(CN2CCc3c(c(=O)n(Cc4ccc(C(F)(F)F)cc4)c(=O)n3C)C2)c1` [Example 18, 6-(3-ethynylbenzyl)-1-methyl-3-(4-(trifluoromethyl)benzyl)-5,6,7,8-tetrahydropyrido[4,3-d]pyrimidine-2,4(1H,3H)-dione], the EC50 worked out at 1.4 µM.

`C#Cc1cccc(CN2CCc3c(c(=O)n(Cc4ccccc4C)c(=O)n3C)C2)c1` [Example 19, 6-(3-ethynylbenzyl)-1-methyl-3-(2-methylbenzyl)-5,6,7,8-tetrahydropyrido[4,3-d]pyrimidine-2,4(1H,3H)-dione]: the concentration for a half-maximal effect (EC50) is 1.5 µM.

Turning to `C#Cc1cccc(CN2CCc3c(c(=O)n(Cc4cccc(C)c4)c(=O)n3C)C2)c1` [Example 20, 6-(3-ethynylbenzyl)-1-methyl-3-(3-methylbenzyl)-5,6,7,8-tetrahydropyrido[4,3-d]pyrimidine-2,4(1H,3H)-dione], the EC50 worked out at 1 µM.

Take `C#Cc1cccc(CN2CCc3c(c(=O)n(Cc4ccc(Cl)cc4)c(=O)n3C)C2)c1` [Example 21, 3-(4-chlorobenzyl)-6-(3-ethynylbenzyl)-1-methyl-5,6,7,8-tetrahydropyrido[4,3-d]pyrimidine-2,4(1H,3H)-dione]: the EC50 worked out at 1.4 µM.

Turning to `Cn1c2c(c(=O)n(Cc3ccc(C(F)(F)F)cc3)c1=O)CN(Cc1cccc(Cl)c1)CC2` [Example 22, 6-(3-chlorobenzyl)-1-methyl-3-(4-(trifluoromethyl)benzyl)-5,6,7,8-tetrahydropyrido[4,3-d]pyrimidine-2,4(1H,3H)-dione], the EC50 was 0.1 µM.

In the case of `Cn1c2c(c(=O)n(Cc3ccc4c(c3)OCO4)c1=O)CN(Cc1ccccc1)CC2` [Example 23, 3-(benzo[d][1,3]dioxol-5-ylmethyl)-6-benzyl-1-methyl-5,6,7,8-tetrahydropyrido[4,3-d]pyrimidine-2,4(1H,3H)-dione], the 50% effective concentration (EC50) amounted to 2.5 µM.

On to `Cn1c2c(c(=O)n(Cc3ccc(Br)cc3)c1=O)CN(Cc1cccc(C#N)c1)CC2` [Example 24, 3-((3-(4-bromobenzyl)-1-methyl-2,4-dioxo-1,2,3,4,7,8-hexahydropyrido[4,3-d]pyrimidin-6(5H)-yl)methyl)benzonitrile], for which the EC50 was found to be 0.022 µM.

Take `Cn1c2c(c(=O)n(Cc3ccc(C(F)(F)F)cc3)c1=O)CN(Cc1cccc(C#N)c1)CC2` [Example 26, 3-((1-methyl-2,4-dioxo-3-(4-(trifluoromethyl)benzyl)-1,2,3,4,7,8-hexahydropyrido[4,3-d]pyrimidin-6(5H)-yl)methyl)benzonitrile]: the EC50 stood at 0.5 µM.

As for `CCn1c2c(c(=O)n(Cc3ccc(C(F)(F)F)cc3)c1=O)CN(Cc1cccc(C#N)c1)CC2` [Example 27, 3-((1-ethyl-2,4-dioxo-3-(4-(trifluoromethyl)benzyl)-1,2,3,4,7,8-hexahydropyrido[4,3-d]pyrimidin-6(5H)-yl)methyl)benzonitrile], the half-maximal effective concentration (EC50) amounted to 1.9 µM.

For `CCn1c2c(c(=O)n(Cc3ccc(Cl)cc3)c1=O)CN(Cc1cccc(C#N)c1)CC2` [Example 28, 3-((3-(4-chlorobenzyl)-1-ethyl-2,4-dioxo-1,2,3,4,7,8-hexahydropyrido[4,3-d]pyrimidin-6(5H)-yl)methyl)benzonitrile], the EC50 came out at 0.21 µM.

The assay is the same for the next values; noted with them: HCT-116, 48 h, read-out: EC50 (uM, HCT116).
For `Cn1c2c(c(=O)n(Cc3cccc(C(F)(F)F)c3)c1=O)CN(Cc1ccccc1)CC2` [Example 13], the EC50 is 1.4 µM.

As to `Cn1c2c(c(=O)n(Cc3ccc(Cl)cc3)c1=O)CN(Cc1cccc(C#N)c1)CC2` [Example 25, 3-((3-(4-chlorobenzyl)-1-methyl-2,4-dioxo-1,2,3,4,7,8-hexahydropyrido[4,3-d]pyrimidin-6(5H)-yl)methyl)benzonitrile], the half-maximal effective concentration (EC50) is 0.74 µM.

For `Cc1ccccc1CN1C(=O)C2=C(CCN(Cc3ccccc3)C2)N2CCN=C12` [TIC10, 11-benzyl-7-[(2-methylphenyl)methyl]-2,5,7,11-tetraazatricyclo[7.4.0.0^2,6]trideca-1(9),5-dien-8-one, reference compound], the EC50 is 2.8 µM.

Another assay deals with SUM159. Kind of assay: CCK-8 cell viability assay on SUM159 human breast cancer cells. Conditions: Homo sapiens, SUM159, 72 h, read-out: EC50 (uM, SUM159). On the technique in general: Tetrazolium dyes change colour on reduction, which living cells bring about.
Protocol: The plate was incubated for 24 hours in a humidified incubator (37° C., 5% CO2). The compound from the present invention, at the appropriate test concentrations, are added to the culture media of the plate. The plate is incubated for 48 hours. CCK-8 (10 ul, see below) is added to each well. The plate is incubated from 1-4 h under conditions as described above, and the absorbance at 450 nm and 650 nm is measured with a plate reader.
Cell Counting was by CCK-8 using WST-8 (2-(2-methoxy-4-nitrophenyl)-3-(4-nitrophenyl)-5-(2,4-disulfophenyl)-2H-tetrazolium, monosodium salt), which produces a water-soluble formazan dye upon bioreduction in the presence of an electron carrier, 1-Methoxy PMS. CCK-8 solution is added directly to the cells. WST-8 is bioreduced by cellular dehydrogenases to an orange formazan product that is soluble in tissue culture medium. The amount of formazan produced is directly proportional to the number of living cells.
With `Cn1c2c(c(=O)n(Cc3ccc(Cl)cc3)c1=O)CN(Cc1cccc(C#N)c1)CC2` [Example 25, 3-((3-(4-chlorobenzyl)-1-methyl-2,4-dioxo-1,2,3,4,7,8-hexahydropyrido[4,3-d]pyrimidin-6(5H)-yl)methyl)benzonitrile], the EC50 stood at 0.014 µM.

Regarding `Cn1c2c(c(=O)n(Cc3ccc(C(F)(F)F)cc3)c1=O)CN(Cc1cccc(C#N)c1)CC2` [Example 26, 3-((1-methyl-2,4-dioxo-3-(4-(trifluoromethyl)benzyl)-1,2,3,4,7,8-hexahydropyrido[4,3-d]pyrimidin-6(5H)-yl)methyl)benzonitrile], the 50% effective concentration (EC50) came to 0.017 µM.

Regarding `Cc1ccccc1CN1C(=O)C2=C(CCN(Cc3ccccc3)C2)N2CCN=C12` [TIC10, 11-benzyl-7-[(2-methylphenyl)methyl]-2,5,7,11-tetraazatricyclo[7.4.0.0^2,6]trideca-1(9),5-dien-8-one, reference compound], the EC50 worked out at 1.4 µM.

The same assay, now with this note: SUM159 cells, 72 hours, versus TIC10.
Consider `Cn1c2c(c(=O)n(Cc3ccc(Cl)cc3)c1=O)CN(Cc1cccc(C#N)c1)CC2` [Example 25, 3-((3-(4-chlorobenzyl)-1-methyl-2,4-dioxo-1,2,3,4,7,8-hexahydropyrido[4,3-d]pyrimidin-6(5H)-yl)methyl)benzonitrile], for which the “potency on human cancer lines in comparison to TIC10” value is “significant and unanticipated improvements in potency”.

As for `Cn1c2c(c(=O)n(Cc3ccc(C(F)(F)F)cc3)c1=O)CN(Cc1cccc(C#N)c1)CC2` [Example 26, 3-((1-methyl-2,4-dioxo-3-(4-(trifluoromethyl)benzyl)-1,2,3,4,7,8-hexahydropyrido[4,3-d]pyrimidin-6(5H)-yl)methyl)benzonitrile], the “potency on human cancer lines in comparison to TIC10” value was “significant and unanticipated improvements in potency”.
